We go through 22 molecules from patent publication US12371438B2, “Ginkgolide B derivative and salt thereof, preparation method therefor and use thereof” (HUILING JINXIN (SHANGHAI) PHARMACEUTICAL TECHNOLOGY CO., LTD, priority 2019, dated 2025).

Test [1] has as its system platelet aggregation in SD rats. The test can be described thus: Anticoagulant activity in SD rats (ADP-induced maximum platelet aggregation rate after gavage). The class given is in vivo. The note with it: for Average maximum platelet aggregation rate (%): 50 mg/kg by gavage once a day for 3 days, ADP inducer, PAGM within 5 min; for anti-aggregation activity on platelet aggregation in SD rats (in words): 50 mg/kg, n=10, compared with Ginkgolide B.
Description: Experimental method: Rats were randomly divided into 10 rats in each group, and each group was given the corresponding test drug (50 mg/kg) by gavage after weighing, once a day for 3 days.
150 μL of PRP in each group was sucked and added to the 96-well plate (adjusted to zero by PPP), and ADP inducer was added, the absorbance value A1 was measured at the wavelength of 650 nm in the microplate reader, which was the absorbance value of each group at 0 min; the oscillation mode of the microplate reader was turned on, and the absorbance value A2 was detected again after 5 min, which was the absorbance value of each group at 5 min. Since the addition of ADP would cause platelet aggregation and change the light permeability, the maximum platelet aggregation rate (PAGM) within 5 min was measured according to this principle. Maximum platelet aggregation rate(PAGM)=(A1−A2)/A1×100

For test [2], the system named is acute cerebral ischemia in SD rats. The test can be described thus: Anti-acute cerebral ischemia activity (middle cerebral artery electrocoagulation, TTC staining). The class given is in vivo. The method, then: At this time, a relatively straight blood vessel with few branches can be seen through the dura mater, that is, the middle cerebral artery. […] The temporal muscle and skin were sutured in turn, and then the rat was administered by gavage (50 mg/kg). After the rats were awakened, they were put back into their cages and continued to be reared for 24 h.
The brain slices were stained in 1% TTC dye solution (incubated at 37° C. in the dark for about 5-10 min), the infarcted area of brain slices after staining was white, while the non-infarcted area was rose red; after staining was completed, the brain slices were moved to 10% formaldehyde solution and kept away from light for 24 hours, finally, a digital camera was used to take pictures, the areas of frontal and reverse infarcted areas and non-infarcted areas were measured by image analysis software (ImageJ, version: 1.4.3.67), and the ratio of infarcted areas in the total infarcted cerebral hemisphere was calculated.

A further test deals with platelet aggregation. The test can be described thus: In vitro anti-platelet aggregation activity evaluation (PAF-induced, platelet-rich plasma). As to conditions: for inhibitory effect on platelet aggregation in vitro (in words): 1 μM, compared with Ginkgolide B; for activity at 1 µM: Oryctolagus cuniculus, Platelet, read-out: Platelet aggregation rate (%, 1 μM). The class given is cell-based, New Zealand white rabbits.

[3] abbreviates: SD rats, 50 mg/kg by gavage after occlusion, 24 h, n=10.
[4] abbreviates: 1 μM drug, PAF-induced, rabbit PRP, corrected to blank = 100, n=5.
Setting [5] is: SD rats, 50 mg/kg, n=10, compared with model group / Ginkgolide B, 50 mg/kg.
Where [6] appears, read: SD rats, 50 mg/kg by gavage after occlusion, 24 h, n=10, 50 mg/kg.

“Also recorded” adds a separate entry of the source. Like-named read-outs stand apart in the source and are kept apart here.

“2-(Ginkgolide B-10-oxy) n-pentylamine Acetate [Embodiment 17]”: in test [1] (n=10), the “Average maximum platelet aggregation rate (%)” value worked out at 34.20%. The “Average area ratio of hemicerebral infarction (%)” value (shortened to “Average area ratio … (%)”) in test [2] (setting [3]) is 25.31%. Besides, the “Platelet aggregation rate (%, 1 μM)” value in the test on platelet aggregation (setting [4]) is listed as 21.90%. In addition, the “inhibitory effect on platelet aggregation in vitro (in words)” value (“inhibitory effect” below) with platelet aggregation is “significant activity”.
As for “2-(Ginkgolide B-10-oxy) pyrrolidine Acetate [Embodiment 18]”, in the test on platelet aggregation (setting [4]), the “Platelet aggregation rate (%, 1 μM)” value is 26.45%.
For “2-(Ginkgolide B-10-oxy)ammonium Acetate [Embodiment 11]”, in the test with platelet aggregation (setting [4]), the “Platelet aggregation rate (%, 1 μM)” value was found to be 56.53%.
In the case of “2-(Ginkgolide B-10-oxy)arginine Acetate [Embodiment 13]”, in test [1] (n=10), the “Average maximum platelet aggregation rate (%)” value amounted to 21.25%. The “anti-aggregation activity on platelet aggregation in SD rats (in words)” value in test [1] is given as “particularly significant (P<0.001)”. For the same molecule, in test [2] (setting [3]), the “Average area ratio … (%)” value came out at 20.14%. In test [2] (setting [5]), the “activity for reducing the area ratio of hemicerebral infarction in SD rats (in words)” value is recorded as “particularly significant (P<0.001)”. Also, the “Platelet aggregation rate (%, 1 μM)” value with platelet aggregation (setting [4]) is listed as 15.66%. For the same molecule, the “inhibitory effect” value in the test on platelet aggregation is “significant activity”.
On to “2-(Ginkgolide B-10-oxy)diethylamine Acetate [Embodiment 16]”, for which the “Platelet aggregation rate (%, 1 μM)” value in the test on platelet aggregation (setting [4]) was 28.87%.
As to “2-(Ginkgolide B-10-oxy)histidine Acetate [Embodiment 14]”, the “Average maximum platelet aggregation rate (%)” value in test [1] (n=10) amounted to 26.82%. Further, the “anti-aggregation activity on platelet aggregation in SD rats (in words)” value in test [1] was “particularly significant (P<0.001)”. The “Average area ratio … (%)” value in test [2] (setting [3]) was found to be 17.98%. Further, the “activity for reducing the area ratio of hemicerebral infarction in SD rats (in words)” value in test [2] (setting [5]) was “particularly significant (P<0.001)”. Moreover, the “Platelet aggregation rate (%, 1 μM)” value with platelet aggregation (setting [4]) came out at 19.74%. Also, the “inhibitory effect” value with platelet aggregation is “significant activity”.
In the case of “2-(Ginkgolide B-10-oxy)lysine Acetate [Embodiment 12]”, the “Average maximum platelet aggregation rate (%)” value in test [1] (n=10) was determined as 22.65%. In test [1], the “anti-aggregation activity on platelet aggregation in SD rats (in words)” value is “particularly significant (P<0.001)”. Also, in test [2] (rat, in vivo, 50 mg/kg), the “Average area ratio … (%)” value is given as 18.83%; the “activity for reducing the area ratio of hemicerebral infarction in SD rats (in words)” value is “particularly significant (P<0.001); also recorded: significantly better than Ginkgolide B and embodiment 10”. Moreover, in the test with platelet aggregation (setting [4]), the “Platelet aggregation rate (%, 1 μM)” value is reported as 12.23%. Besides, in the test with platelet aggregation, the “inhibitory effect” value is given as “significant activity”.
For “2-(Ginkgolide B-10-oxy)morpholine Acetate [Embodiment 19]”, the “Platelet aggregation rate (%, 1 μM)” value with platelet aggregation (setting [4]) came out at 35.77%.
Still for that read-out and setting: the same measure for “2-(Ginkgolide B-10-oxy)triethylamine Acetate [Embodiment 15]”: 24.65%.
For the molecule “2-(Ginkgolide B-10-oxyethoxy)N-methyl-D-glucosamine Acetate [Embodiment 21]”, the “Average maximum platelet aggregation rate (%)” value in test [1] (n=10) turned out to be 29.35%. Moreover, the “Average area ratio … (%)” value in test [2] (setting [3]) was 22.66%. The “Platelet aggregation rate (%, 1 μM)” value with platelet aggregation (setting [4]) is 18.64%. For the same molecule, in the test with platelet aggregation, the “inhibitory effect” value was “significant activity”.
Take “2-(Ginkgolide B-10-oxyethoxy)sodium Acetate [Embodiment 20]”: the “Platelet aggregation rate (%, 1 μM)” value in the test with platelet aggregation (setting [4]) is 45.32%.
In the case of `COC(=O)CO[C@H]1C(=O)O[C@H]2O[C@]34C(=O)OC5C[C@@H](C(C)(C)C)C21[C@@]53[C@@H](O)[C@@H]1OC(=O)C(C)[C@@]14O` (some centres unmarked) [Embodiment 1, 10-O-(methoxyformylmethyl) Ginkgolide B], the activity at 1 µM with platelet aggregation was 30%.
As to `COC(=O)/C=C/CO[C@H]1C(=O)O[C@H]2O[C@]34C(=O)OC5C[C@@H](C(C)(C)C)C21[C@@]53[C@@H](O)[C@@H]1OC(=O)C(C)[C@@]14O` (some centres unmarked) [Embodiment 2, 10-O-(methoxyformylallyl) Ginkgolide B], in test [1] (n=10), the “Average maximum platelet aggregation rate (%)” value amounted to 32.60%. The “Average area ratio … (%)” value in test [2] (setting [3]) worked out at 21.56%. Moreover, in the test with platelet aggregation, the “inhibitory effect” value is “significant activity” and the activity at 1 µM stood at 10.3%.
Consider `CC1C(=O)O[C@H]2[C@H](O)[C@@]34C5C[C@@H](C(C)(C)C)C36[C@@H](OC(=O)[C@@H]6OCC(=O)OC(C)(C)C)O[C@@]4(C(=O)O5)[C@@]12O` (some centres unmarked) [Embodiment 3, 10-O-(tert-butoxyformylmethyl) Ginkgolide B], for which the activity at 1 µM in the test with platelet aggregation came to 26.1%.
For the molecule `COC(=O)COCCO[C@H]1C(=O)O[C@H]2O[C@]34C(=O)OC5C[C@@H](C(C)(C)C)C21[C@@]53[C@@H](O)[C@@H]1OC(=O)C(C)[C@@]14O` (some centres unmarked) [Embodiment 4, 10-O-(methoxyformylmethoxyethyl) Ginkgolide B], in the test with platelet aggregation (setting [4]), the activity at 1 µM was determined as 46.7%.
For the molecule `COC(=O)COCCOCCO[C@H]1C(=O)O[C@H]2O[C@]34C(=O)OC5C[C@@H](C(C)(C)C)C21[C@@]53[C@@H](O)[C@@H]1OC(=O)C(C)[C@@]14O` (some centres unmarked) [Embodiment 5, 10-O-(methoxyformylmethoxyethoxyethyl) Ginkgolide B], the activity at 1 µM in the test on platelet aggregation is 39.3%.
`CC1C(=O)O[C@H]2[C@H](O)[C@@]34C5C[C@@H](C(C)(C)C)C36[C@@H](OC(=O)[C@@H]6OC/C=C/C(=O)O)O[C@@]4(C(=O)O5)[C@@]12O` (some centres unmarked) [Embodiment 6, 4-(Ginkgolide B-10-oxy)-2-butenoic Acid]: the activity at 1 µM in the test on platelet aggregation (setting [4]) came to 45.7%.
As for `CC1C(=O)O[C@H]2[C@H](O)[C@@]34C5C[C@@H](C(C)(C)C)C36[C@@H](OC(=O)[C@@H]6OCC(=O)O)O[C@@]4(C(=O)O5)[C@@]12O` (some centres unmarked) [Embodiment 7, 2-(Ginkgolide B-10-oxy)acetic Acid], the “Average maximum platelet aggregation rate (%)” value in test [1] (n=10, 50 mg/kg) was determined as 35.20%. Moreover, the “Average area ratio … (%)” value in test [2] (setting [6]) was found to be 25.14%. The “Platelet aggregation rate (%, 1 μM)” value in the test with platelet aggregation (setting [4]) turned out to be 17.66%. For the same molecule, the “inhibitory effect” value with platelet aggregation was “significant activity”.
Regarding `CC1C(=O)O[C@H]2[C@H](O)[C@@]34C5C[C@@H](C(C)(C)C)C36[C@@H](OC(=O)[C@@H]6OCCOCC(=O)O)O[C@@]4(C(=O)O5)[C@@]12O` (some centres unmarked) [Embodiment 8, 2-(Ginkgolide B-10-oxyethoxy)acetic Acid], the activity at 1 µM with platelet aggregation (setting [4]) worked out at 23.7%.
Regarding `CC1C(=O)O[C@H]2[C@H](O)[C@@]34C5C[C@@H](C(C)(C)C)C36[C@@H](OC(=O)[C@@H]6OCCOCCOCC(=O)O)O[C@@]4(C(=O)O5)[C@@]12O` (some centres unmarked) [Embodiment 9, 2-(Ginkgolide B-10-oxyethoxyethoxy)acetic Acid], in the test with platelet aggregation (setting [4]), the activity at 1 µM came out at 35%.
As to `CC1C(=O)O[C@H]2[C@H](O)[C@@]34C5C[C@@H](C(C)(C)C)C36[C@@H](OC(=O)[C@@H]6OCC(=O)O)O[C@@]4(C(=O)O5)[C@@]12O` (some centres unmarked) [Embodiment 10, 2-(Ginkgolide B-10-oxy)sodium Acetate], the “Average maximum platelet aggregation rate (%)” value in test [1] (n=10, 50 mg/kg) was 42.20%. The “Average area ratio … (%)” value in test [2] (setting [6]) is 29.61%. Also, in the test on platelet aggregation (setting [4]), the “Platelet aggregation rate (%, 1 μM)” value came to 39.34%.
Consider `CC1C(=O)OC2C(O)C34C5CC(C(C)(C)C)C36C(OC(=O)C6O)OC4(C(=O)O5)C12O` (centres unmarked) [Ginkgolide B], for which the “Average maximum platelet aggregation rate (%)” value in test [1] (n=10) was 39.57%. Further, the “Average area ratio … (%)” value in test [2] (setting [3]) amounted to 26.12%. The “Platelet aggregation rate (%, 1 μM)” value in the test on platelet aggregation (setting [4]) was 63.42%.
